According to US5200393A, “Lipid excipient for nasal delivery and topical application” (The Liposome Company, Inc., priority 1991, dated 1993):

Assays:
[1] = Nasal delivery of calcitonin in MOPE excipient to rats, serum calcium; assay type: in vivo, rat; details: MOPE used as the excipient delivery vehicle; FIG. 1; change in serum calcium after one and three hours
Procedure: Eight Wistar Kyoto male rats, weighing 250-300 g were anesthetized with a 20% solution of urethane administered in a divided dose of 1/6 g/kg, administered intraperitoneally (IP).
The rats were surgically prepared for nasal sample instillation according to the Harai method (Hussain et al., 19800, J. Pharm. Sci., 69(12):1411-1413. A pre-drug blood sample was taken from each rat (1.0 ml drawn from retroorbital site) and allowed to clot, and the serum separated by standard technique.
The calcitonin-MOPE solution (single 50 uL doses per rate) were administered by inserting a syringe containing the sample into the rats nostril, and injecting. A blood sample was obtained from each rat after one and three hours, and assayed for serum calcium.
Serum calcium was determined colorimetrically by the Sigma Diagnostics Calcium Kit No. 587 (Sigma, St. Louis, Mo.). The change in serum calcium levels compared to pre-drug controls was plotted as a function of time. (FIG. 1)

[2] = Nasal delivery of insulin in MOPE excipient to diabetic rats, serum insulin radioimmunoassay; assay type: in vivo, rat
Procedure: The insulin-MOPE solution of Example 4 was instilled into the nasal cavity of rats according to the methods of Example 3. Right Sprague-Dawley male 300 g rats which had been made diabetic according to the methods of Weiner et al., 1985, J. Pharm. Sci., 74:922-925 were used. Blood samples were collected after one hour and serum separated according to standard methods as in Example 3. The serum was analyzed for insulin using the Coat-A-CountInsulin ^125 I radioimmunoassay (Diagnostic Products Corp., Los Angeles, Calif.).
MOPE (80.0 mg) in chloroform was dried down to a lipid film on a round bottom flask at 37° C. in a water bath. The film was resuspended in 10.0 ml of distilled water which had been pH adjusted to pH 9.0 with about 20-50 uL of 0.1N sodium hydroxide (NaOH). Four mg of porcine insulin powder (Eli Lilly, Indianapolis, Ind.) supplied as 25 U/mg, was admixed with the MOPE solution and vortically mixed, creating a 0.8% MOPE insulin gel. The resulting gel was administered to diabetic rats according to the methods of Example 5. […] The methods of the above Example were repeated, dilutions were made to result in 10 ml of each of 0.4%, 0.2%, and 0.1% MOPE, 4.0 mg of insulin being admixed with these MOPE samples as well, the complete results from serum insulin concentrations of each sample plotted together in FIG. 2. […]

SMILES: CCCCCCCC/C=C\CCCCCCCC(=O)OC[C@@H](O)COP(=O)(O)OCCN [MOPE, 1-oleoyl lysophosphatidylethanolamine]
- enhancement of calcitonin through the nasal mucosa [1]: enhancement
- lipid concentration at which enhanced drug absorption of insulin occurs ([2]; excipient at about pH 7.0, cloudy fluid): about 0.8%
- MOPE concentration that has most efficacy for penetration enhancement of insulin ([2]; pH 9.0, in distilled water): 0.2%
